Results taken from PubChem BioAssay (NCI).
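All cell lines were grown in 96-well plates and treated with compound for 48 hours. Definition used: TGI = concentration required for complete inhibition of growth.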

What was measured:
Test in all cases: NCI anticancer screen, dose series, 48 h
[1] = system: RPMI-8226 leukemia
[2] = system: HCT-116 colon
[3] = system: A498 renal
[4] = system: OVCAR-8 ovarian
[5] = system: OVCAR-3 ovarian
[6] = system: UACC-257 melanoma
[7] = system: K-562 leukemia
[8] = system: UO-31 renal
[9] = system: LOX IMVI melanoma
[10] = system: SK-OV-3 ovarian
[11] = system: NCI-H226 lung
[12] = system: SNB-19 CNS
[13] = system: 786-0 renal
[14] = system: MOLT-4 leukemia
[15] = system: SK-MEL-28 melanoma
[16] = system: DU-145 prostate
[17] = system: HOP-92 NSCLC
[18] = system: HS 578T breast

Row | Compound | TGI [1] [µM] | TGI [2] [µM] | TGI [3] [µM] | TGI [4] [µM] | TGI [5] [µM] | TGI [6] [µM] | TGI [7] [µM] | TGI [8] [µM] | TGI [9] [µM] | TGI [10] [µM] | TGI [11] [µM] | TGI [12] [µM] | TGI [13] [µM] | TGI [14] [µM] | TGI [15] [µM] | TGI [16] [µM] | TGI [17] [µM] | TGI [18] [µM]
1 | CC(C)=CC(=O)C/C(=N\NC(N)=S)C(=O)Nc1ccc(Cl)cc1 | > 100 | > 100 | > 100 | > 100 | > 100 | > 100 | > 100 | > 100 | > 100 | > 100 | > 100 | > 100 | > 100 | > 100 | > 100 |  |  | 
2 | COC(=O)/C(=C\Nc1cccc(C)n1)S(=O)(=O)c1ccc(C)cc1 | > 100 | > 100 |  | > 100 | > 100 | > 100 | 75.5 | > 100 | > 100 | > 100 | > 100 | > 100 | > 100 | 70.4 | > 100 | > 100 | > 100 | > 100
3 | O=C1Nc2ccccc2C12CCNC2Cc1ccccc1 (configuration not stated) | > 100 | > 100 | > 100 | > 100 | > 100 | > 100 | > 100 |  | > 100 | > 100 |  | > 100 | > 100 | > 100 | > 100 |  | > 100 | 
4 | O=C(c1ccc(Cl)cc1)c1ccc(OCCCOc2ccc(C(=O)c3ccc(Cl)cc3)cc2)cc1 | > 100 | > 100 |  | > 100 | > 100 | > 100 | > 100 |  | > 100 | > 100 | > 100 | > 100 | > 100 | > 100 | > 100 |  | > 100 | 
5 | Cc1c(Cl)c2ccccc2n1S(=O)(=O)c1ccccc1 | 86 | > 100 |  | > 100 | > 100 | > 100 | > 100 | 85.6 |  |  | > 100 | > 100 | > 100 | > 100 | > 100 |  | 54.2 | 
6 | COCCCNC(=O)C1C(=O)N(CCCOC)C(=O)/C1=N\N (configuration not stated) | > 100 | > 100 | > 100 | > 100 | > 100 | > 100 | > 100 | > 100 |  |  |  | > 100 | > 100 | > 100 | > 100 |  | > 100 | 
7 | OC(c1cc2ccccc2o1)c1cc2ccccc2s1 (configuration not stated) | > 10 | > 10 |  | > 10 | > 10 | > 10 | > 10 | > 10 | > 10 | > 10 | > 10 | > 10 | > 10 | > 10 | > 10 | > 10 | > 10 | > 10
8 | COc1ccc(-c2cc(=O)c3cc4c(cc3[nH]2)OCO4)cc1OC | > 100 | > 100 |  | > 100 | > 100 |  | > 100 | > 100 | > 100 | > 100 | > 100 | > 100 | > 100 | > 100 | > 100 |  | > 100 | 
